The test system of assay [1] is Nicotiana tabacum. The experiment in a line: Induction of systemic resistance (ISR) activity in Nicotiana tabacum (tobacco) seedlings against pectobacterium carotovorum subsp. carotovorum SCC1 assessed as decrease in disease symptoms on leaves at 12 mM applied to roots prior to leaf infection with SCC1 measured at 3 days after pathogen challenge. The class given is functional, organism-based.

Assay [2] concerns Nicotiana tabacum. The experiment in a line: Induction of systemic resistance (ISR) activity in Nicotiana tabacum (tobacco) seedlings against pectobacterium carotovorum subsp. carotovorum SCC1 assessed as decrease in disease symptoms on leaves applied to roots prior to leaf infection with SCC1 measured at 3 days after pathogen challenge. The class given is functional, organism-based.

Activity calls are given as the source filed them. No cut-off for these calls is given here.

The record followed here is ChEMBL document CHEMBL3046690, “Identification of an ISR-related metabolite produced by rhizobacterium Klebsiella oxytoca C1036 active against soft-rot disease pathogen in tobacco” (Pest Manag Sci, 2009).

For the compound `CCCCOC(=O)C1CCC(=O)N1` (configuration not stated), in the assay with Nicotiana tabacum [1], the result was Active.

On to `CCCCOC(=O)[C@@H]1CCC(=O)N1`, for which the result in the assay with Nicotiana tabacum [2] was Active.
